Test results published in US12466827B2, “1,3,4-oxadiazole derivative compounds as histone deacetylase 6 inhibitor, and the pharmaceutical composition comprising the same” (CHONG KUN DANG PHARMACEUTICAL CORP., priority 2020, dated 2025).

Experiments:
human recombinant HDAC1 = target: T1, human recombinant HDAC1 (Homo sapiens, UniProt Q13547); experiment: In vitro HDAC enzyme activity inhibition assay (HDAC1); assay type: biochemical; details: Fluor de Lys-SIRT1 substrate 10 μM, 30° C., 60 minutes, fluorescence
T1 construct: purchased Enzo Life Sciences, Inc. BML-SE456
T1 sequence (Q13547 whole entry): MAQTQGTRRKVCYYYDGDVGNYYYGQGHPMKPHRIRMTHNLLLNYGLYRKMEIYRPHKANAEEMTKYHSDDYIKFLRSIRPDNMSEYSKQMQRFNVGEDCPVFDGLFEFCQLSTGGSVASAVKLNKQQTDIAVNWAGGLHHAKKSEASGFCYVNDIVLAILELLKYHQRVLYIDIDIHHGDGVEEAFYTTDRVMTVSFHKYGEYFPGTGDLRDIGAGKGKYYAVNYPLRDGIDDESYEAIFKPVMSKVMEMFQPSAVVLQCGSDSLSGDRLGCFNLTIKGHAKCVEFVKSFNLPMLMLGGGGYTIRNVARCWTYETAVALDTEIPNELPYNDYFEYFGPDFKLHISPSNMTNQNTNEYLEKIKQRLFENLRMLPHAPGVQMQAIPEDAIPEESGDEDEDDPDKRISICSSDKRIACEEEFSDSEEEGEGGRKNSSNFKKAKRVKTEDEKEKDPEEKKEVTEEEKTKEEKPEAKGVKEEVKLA
Procedure: (§1) In order to confirm the selectivity of the compounds represented by Chemical Formula I of the present invention to HDAC6 through HDAC1 and HDAC6 enzyme activity inhibition experiments, a comparison experiment was performed using the material that has already been developed as a control group.
(§2) HDAC enzyme activity was measured using the HDAC Fluorimetric Drug Discovery Kit (Enzo Life Sciences, Inc., BML-AK511, 516). For the HDAC1 enzyme activity test, human recombinant HDAC1 (BML-SE456) was used as an enzyme source and Fluor de Lys-SIRT1 (BNL-KI177) was used as a substrate. After dispensing 5-fold diluted compounds into a 96-well plate, 0.3 μg of enzyme and 10 μM substrate were added to each well of the plate and allowed to react at 30° C. for 60 minutes. Next, Fluor de Lys Developer II (BML-KI176) was added and reacted for 30 minutes to complete the reaction, and then the fluorescence values (Ex 360, Em 460) were measured using a multi-plate reader (Flexstation 3, Molecular Device). The HDAC6 enzymes were tested using human recombinant HDAC6 (382180) from Calbiochem Inc., according to the same protocol as the HDAC1 enzyme activity test method. With respect to the final result values, respective IC50 values were calculated using GraphPad Prism 4.0 program, and results thereof were summarized in Table 4 below.

human recombinant HDAC6 = target: T2, human recombinant HDAC6 (Homo sapiens, UniProt Q9UBN7); experiment: In vitro HDAC enzyme activity inhibition assay (HDAC6); assay type: biochemical; details: for HDAC6 selectivity (fold): HDAC6 over HDAC1; for IC50: same protocol as the HDAC1 test, human recombinant HDAC6 (Calbiochem)
T2 construct: purchased Calbiochem Inc. 382180
T2 sequence (Q9UBN7 1-1215): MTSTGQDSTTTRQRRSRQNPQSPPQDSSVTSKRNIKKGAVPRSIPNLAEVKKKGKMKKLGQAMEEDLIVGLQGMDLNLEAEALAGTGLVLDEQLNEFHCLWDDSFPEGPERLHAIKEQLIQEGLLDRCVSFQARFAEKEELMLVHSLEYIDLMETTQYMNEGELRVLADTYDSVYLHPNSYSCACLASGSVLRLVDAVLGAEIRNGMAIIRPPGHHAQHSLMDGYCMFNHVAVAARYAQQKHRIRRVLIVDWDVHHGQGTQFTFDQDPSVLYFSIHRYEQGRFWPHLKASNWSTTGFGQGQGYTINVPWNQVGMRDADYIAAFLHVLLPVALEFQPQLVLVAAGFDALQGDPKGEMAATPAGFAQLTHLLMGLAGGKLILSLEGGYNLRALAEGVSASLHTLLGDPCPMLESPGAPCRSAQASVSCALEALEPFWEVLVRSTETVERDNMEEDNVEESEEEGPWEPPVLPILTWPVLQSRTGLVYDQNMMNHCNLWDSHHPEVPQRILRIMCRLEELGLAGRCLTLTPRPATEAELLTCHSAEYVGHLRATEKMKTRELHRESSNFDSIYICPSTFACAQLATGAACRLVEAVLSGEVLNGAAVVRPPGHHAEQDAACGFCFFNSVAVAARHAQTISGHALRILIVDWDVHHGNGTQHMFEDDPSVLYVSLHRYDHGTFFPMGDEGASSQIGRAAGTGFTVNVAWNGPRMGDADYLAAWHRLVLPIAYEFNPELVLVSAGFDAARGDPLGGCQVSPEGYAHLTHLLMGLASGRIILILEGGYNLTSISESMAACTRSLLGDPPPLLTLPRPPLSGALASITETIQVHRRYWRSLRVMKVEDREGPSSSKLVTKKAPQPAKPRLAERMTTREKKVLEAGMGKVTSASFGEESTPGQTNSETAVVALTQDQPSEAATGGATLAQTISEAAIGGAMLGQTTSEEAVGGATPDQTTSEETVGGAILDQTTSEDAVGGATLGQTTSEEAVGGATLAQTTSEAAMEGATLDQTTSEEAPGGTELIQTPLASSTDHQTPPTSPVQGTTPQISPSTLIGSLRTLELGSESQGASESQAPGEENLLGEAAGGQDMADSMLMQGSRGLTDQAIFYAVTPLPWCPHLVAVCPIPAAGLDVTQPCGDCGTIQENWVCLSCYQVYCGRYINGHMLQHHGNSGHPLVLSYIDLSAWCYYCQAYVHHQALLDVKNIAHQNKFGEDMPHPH
Procedure: as §1, §2

Row | SMILES | IC50 (human recombinant HDAC1) | HDAC6 selectivity (fold) (human recombinant HDAC6) | IC50 (human recombinant HDAC6)
1 | CN1CCC(S(=O)(=O)N(Cc2cn3ccc(-c4nnc(C(F)F)o4)cc3n2)c2cccc(F)c2)CC1 [Compound 4236, N-((7-(5-(difluoromethyl)-1,3,4-oxadiazol-2-yl)imidazo[1,2-a]pyridin-2-yl)methyl)-N-(3-fluorophenyl)-1-methylpiperidine-4-sulfonamide] | > 50 µM | 678 fold | 73.8 nM
2 | CCN1CCC(S(=O)(=O)N(Cc2cn3ccc(-c4nnc(C(F)F)o4)cc3n2)c2cccc(F)c2)CC1 [Compound 4237, N-((7-(5-(difluoromethyl)-1,3,4-oxadiazol-2-yl)imidazo[1,2-a]pyridin-2-yl)methyl)-1-ethyl-N-(3-fluorophenyl)-piperidine-4-sulfonamide] | > 50 µM | 821 fold | 60.9 nM
3 | CC(C)N1CCC(S(=O)(=O)N(Cc2cn3ccc(-c4nnc(C(F)F)o4)cc3n2)c2cccc(F)c2)CC1 [Compound 4238, N-((7-(5-(difluoromethyl)-1,3,4-oxadiazol-2-yl)imidazo[1,2-a]pyridin-2-yl)methyl)-N-(3-fluorophenyl)-1-isopropylpiperidine-4-sulfonamide] | > 50 µM | 653 fold | 76.6 nM
4 | CC(CO)N1CCC(S(=O)(=O)N(Cc2cn3ccc(-c4nnc(C(F)F)o4)cc3n2)c2cccc(F)c2)CC1 (stereo not drawn) [Compound 4239, N-((7-(5-(difluoromethyl)-1,3,4-oxadiazol-2-yl)imidazo[1,2-a]pyridin-2-yl)methyl)-N-(3-fluorophenyl)-1-(1-hydroxypropan-2-yl)piperidine-4-sulfonamide] | > 50 µM | 635 fold | 78.8 nM
5 | O=S(=O)(C1CCN(C2CCC2)CC1)N(Cc1cn2ccc(-c3nnc(C(F)F)o3)cc2n1)c1cccc(F)c1 [Compound 4240, 1-cyclobutyl-N-((7-(5-(difluoromethyl)-1,3,4-oxadiazol-2-yl)imidazo[1,2-a]pyridin-2-yl)methyl)-N-(3-fluorophenyl)piperidine-4-sulfonamide] | > 50 µM | 936 fold | 53.4 nM
6 | O=S(=O)(C1CCN(C2COC2)CC1)N(Cc1cn2ccc(-c3nnc(C(F)F)o3)cc2n1)c1cccc(F)c1 [Compound 4241] | > 50 µM | 715 fold | 69.9 nM
7 | O=S(=O)(C1CCN(C2CCCCC2)CC1)N(Cc1cn2ccc(-c3nnc(C(F)F)o3)cc2n1)c1cccc(F)c1 [Compound 4242, 1-cyclohexyl-N-((7-(5-(difluoromethyl)-1,3,4-oxadiazol-2-yl)imidazo[1,2-a]pyridin-2-yl)methyl)-N-(3-fluorophenyl)piperidine-4-sulfonamide] | > 50 µM | 800 fold | 62.5 nM
8 | O=S(=O)(C1CCN(C2CCOCC2)CC1)N(Cc1cn2ccc(-c3nnc(C(F)F)o3)cc2n1)c1cccc(F)c1 [Compound 4243, N-((7-(5-(difluoromethyl)-1,3,4-oxadiazol-2-yl)imidazo[1,2-a]pyridin-2-yl)methyl)-N-(3-fluorophenyl)-1-(tetrahydro-2H-pyran-4-yl)piperidine-4-sulfonamide] | > 50 µM | 530 fold | 94.3 nM
9 | O=S(=O)(C1CCN(C2CCC(F)(F)CC2)CC1)N(Cc1cn2ccc(-c3nnc(C(F)F)o3)cc2n1)c1cccc(F)c1 [Compound 4244, 1-(4,4-difluorocyclohexyl)-N-((7-(5-(difluoromethyl)-1,3,4-oxadiazol-2-yl)imidazo[1,2-a]pyridin-2-yl)methyl)-N-(3-fluorophenyl)piperidine-4-sulfonamide] | > 50 µM | 525 fold | 95.3 nM
10 | CC(=O)N1CCC(S(=O)(=O)N(Cc2cn3ccc(-c4nnc(C(F)F)o4)cc3n2)c2cccc(F)c2)CC1 [Compound 4245, 1-acetyl-N-((7-(5-(difluoromethyl)-1,3,4-oxadiazol-2-yl)imidazo[1,2-a]pyridin-2-yl)methyl)-N-(3-fluorophenyl)piperidine-4-sulfonamide] | > 50 µM | 1055 fold | 47.4 nM
11 | CCC(=O)N1CCC(S(=O)(=O)N(Cc2cn3ccc(-c4nnc(C(F)F)o4)cc3n2)c2cccc(F)c2)CC1 [Compound 4246, N-((7-(5-(difluoromethyl)-1,3,4-oxadiazol-2-yl)imidazo[1,2-a]pyridin-2-yl)methyl)-N-(3-fluorophenyl)-1-propionylpiperidine-4-sulfonamide] | > 50 µM | 660 fold | 75.8 nM
12 | O=C(CO)N1CCC(S(=O)(=O)N(Cc2cn3ccc(-c4nnc(C(F)F)o4)cc3n2)c2cccc(F)c2)CC1 [Compound 4247, N-((7-(5-(difluoromethyl)-1,3,4-oxadiazol-2-yl)imidazo[1,2-a]pyridin-2-yl)methyl)-N-(3-fluorophenyl)-1-(2-hydroxyacetyl)piperidine-4-sulfonamide] | > 50 µM | 980 fold | 51 nM
13 | O=C(C1CCC1)N1CCC(S(=O)(=O)N(Cc2cn3ccc(-c4nnc(C(F)F)o4)cc3n2)c2cccc(F)c2)CC1 [Compound 4248, 1-(cyclobutanecarbonyl)-N-((7-(5-(difluoromethyl)-1,3,4-oxadiazol-2-yl)imidazo[1,2-a]pyridine-2-yl)methyl)-N-(3-fluorophenyl)piperidine-4-sulfonamide] | > 50 µM | 542 fold | 92.2 nM
14 | O=C(C1COC1)N1CCC(S(=O)(=O)N(Cc2cn3ccc(-c4nnc(C(F)F)o4)cc3n2)c2cccc(F)c2)CC1 [Compound 4249, N-((7-(5-(difluoromethyl)-1,3,4-oxadiazol-2-yl)imidazo[1,2-a]pyridin-2-yl)methyl)-N-(3-fluorophenyl)-1-(oxetan-3-carbonyl)piperidine-4-sulfonamide] | > 50 µM | 684 fold | 73.1 nM
15 | O=C(N1CCC(S(=O)(=O)N(Cc2cn3ccc(-c4nnc(C(F)F)o4)cc3n2)c2cccc(F)c2)CC1)C(F)(F)F [Compound 4250, N-((7-(5-(difluoromethyl)-1,3,4-oxadiazol-2-yl)imidazo[1,2-a]pyridin-2-yl)methyl)-N-(3-fluorophenyl)-1-(2,2,2-trifluoroacetyl)piperidine-4-sulfonamide] | > 50 µM | 431 fold | 116 nM
16 | CS(=O)(=O)N1CCC(S(=O)(=O)N(Cc2cn3ccc(-c4nnc(C(F)F)o4)cc3n2)c2cccc(F)c2)CC1 [Compound 4251, N-((7-(5-(difluoromethyl)-1,3,4-oxadiazol-2-yl)imidazo[1,2-a]pyridin-2-yl)methyl)-N-(3-fluorophenyl)-1-(methylsulfonyl)piperidine-4-sulfonamide] | > 50 µM | 525 fold | 95.2 nM
17 | COC(=O)N1CCC(S(=O)(=O)N(Cc2cn3ccc(-c4nnc(C(F)F)o4)cc3n2)c2cccc(F)c2)CC1 [Compound 4252, methyl 4-(N-((7-(5-(difluoromethyl)-1,3,4-oxadiazol-2-yl)imidazo[1,2-a]pyridin-2-yl)methyl)-N-(3-fluorophenyl)sulfamoyl)piperidine-1-carboxylate] | > 50 µM | 455 fold | 110 nM
